# Counter-ions that a name gives are not always drawn.
# How the values were obtained:
# [1] = system: SKOV3ip-GFP cells; assay: Short-term omental engraftment assay; format: in vivo, mice; conditions: 18 h post i.p. injection; 1 mg/kg oral every 12 h; cells pretreated with 10 μM; vs placebo
# Protocol: Mice were conditioned to placebo pills for two days prior to drug treatment. […] Consumption was confirmed by visual observation. […] Omenta were harvested from animals 18 h post-injection and placed in ice cold 1X phosphate-buffered saline (PBS) until imaged with an Olympus IX70 inverted fluorescent microscope and Olympus CellSens software. SKOV3ip-GFP cells were subsequently digested from the omentum using 10% NP-40 substitute (Sigma, cat# 74385) in 1X PBS for 30 min at 37 °C. Omenta were gently homogenized using disposable micropestles, centrifuged, and fluorescence intensity was measured using a […] Spectramax M2 plate spectrophotometer (ex:480 nm, em:520 nm).
# [2] = Toxicity assessment, blood chemistry after chronic treatment; format: in vivo; conditions: tumor-bearing mice, 5 mg/kg/d, 25 days, Average ± SD
# Protocol: For toxicity assessment studies at an increased R-ketorolac dose of 5 mg/kg/d, athymic nude female mice were purchased from Charles River Laboratory (Wilmington, MA, strain code 490). Mice were injected i.p. with 1 × 10^6 SKOV3ip-RLuc-GFP cells suspended in sterile saline. Xenografts were established until tumors reached a bioluminescence imaging (BLI) value of ~ 3 × 10^8 radiance (IVIS SpectrumCT, PerkinElmer, Waltham MA). Mice were conditioned to placebo pills once a day for no less than 3 days during xenograft growth, then randomized to receive placebo or 5 mg/kg/d R-ketorolac for 25 days. Blood was collected via cardiac puncture and 0.2–0.4 mL was added to Lithium Heparin tubes (BD Microtainer, Ref #365965). Samples were mixed thoroughly immediately after filling the tube by gently inverting the tube by hand. Samples were kept and analyzed at room temperature within 60 min of collection. For each sample analysis 100 μl of blood was added to Abaxis Comprehensive Diagnostic Profile cassette (Abaxis, Inc. Union City, CA Ref. # 500–0038-24) and values obtained using Abaxis VetScan2 analyzer.
# [3] = system: Rac1; design: method as in earlier work; conditions: cell-based assays, ovarian tumor cells; ref 23 (R-ketorolac), 27 (S-ketorolac); cited from earlier work
# [4] = system: Cdc42; design: method as in earlier work; conditions: cell-based assays, ovarian tumor cells; ref 23 (R-ketorolac), 27 (S-ketorolac); cited from earlier work
# [5] = system: COX-2; design: method as in PMID 26558612, PMID 10027870; conditions: cited from earlier work
# [6] = system: RhoA; design: method as in PMID 26071482; conditions: cited from earlier work
# [7] = design: method as in PMID 8809637; conditions: single dose oral administration of R-ketorolac; cited from earlier work
# [8] = Enantiomer stability of ketorolac in the oral dosage form (HPLC); format: physicochemical; conditions: transgenic dough pills stored at 4 °C
# Protocol: As an alternative to gavage for oral delivery, drug was administered in pills formed from transgenic dough (BioServ, Flemington, NJ, cat #S3472). […] Briefly, R-Ketorolac was dissolved in 100% ethanol to a concentration of 5 mg/ml. Bromophenol blue was added to solutions at a final concentration of 0.1% as an aid to ensure even distribution of drug into the dough. Placebo pills were made using an equivalent volume of 100% ethanol containing 0.1% bromophenol blue. Dough was then pressed using 100 mg pill forms (Gallipot, St. Paul, MN). Pills were allowed to dry at room temperature overnight then removed from the forms and stored at 4 °C. Ketorolac, as racemic compound or individual enantiomer, was stable for at least 3 months in the pills as determined by high performance liquid chromatography (HPLC) (Additional File 2: Figure S1).
# Cell Culture and Reagents
# SKOV3ip cells were modified to express GFP-Rac1 by transfection with pcDNA3-EGFP-Rac1-wt (Catalog # 12980, Addgene) as described for SKOV3ip-GFP cells under Methods. Rac1 overexpression quantification and verification was completed by western blot and qPCR. […]
# Omental tissue was harvested and stored on ice in PBS for no more than 1 hour before analysis. Omenta were blotted dry on lab tissue and weight was measured using an analytical balance (Denver Instruments Company, A -160). […]
# [9] = ROS model for points below limit of detection
compound,measurement,setting,value
O=C(c1ccccc1)c1ccc2n1CC[C@H]2C(=O)O [R-ketorolac],"Omental engraftment (GFP fluorescence, omental localization of SKOV3ip-GFP cells)",[1],decreased the omental localization of SKOV3ip-GFP cells
same,Alanine aminotransferase,[2],32.30 ± 11.35 U/L
same,Albumin,[2],4.05 ± 0.40 g/dL
same,Amylase,[2],1069 ± 264 U/L
same,Blood Urea Nitrogen,[2],16.4 ± 2.59 mg/dL
same,Calcium,[2],11.58 ± 0.79 mg/dL
same,Globulin,[2],1.77 ± 0.43 g/dL
same,Glucose,[2],287.7 ± 81.31 mg/dL
same,Mouse Weight,[2],23.67 ± 1.30 g
same,Phosphorus,[2],9.86 ± 1.90 mg/dL
same,Sodium,[2],151.3 ± 4.11 mmol/L
same,Total Bilirubin,[2],0.26 ± 0.05 mg/dL
same,Total Protein,[2],5.79 ± 0.34 g/dL
same,Alkaline phosphatase,[2]; [9],28.97 ± 18.75 U/L
same,Creatinin,[2]; [9],0.24 ± 0.13 mg/dL
same,IC50,[3],570 nM
same,IC50,[4],1070 nM
same,IC50,[5],> 100 µM
same,Inhibition of RhoA activity,[6],does not inhibit the activity of RhoA
same,Maximal peak serum concentration,[7],2.48 µg/mL
"O=C(c1ccccc1)c1ccc2n1CCC2C(=O)O (stereo not drawn) [R−/S-ketorolac, ketorolac tromethamine salt]",Stability in pills,[8],at least 3 months

# — publication PMC7791840, “The R-enantiomer of ketorolac reduces ovarian cancer tumor burden in vivo” (BMC Cancer, 2021)
